Results from US11434258B2, “Compounds (immunorhelins)” (ISR IMMUNE SYSTEM REGULATION HOLDING AB (PUBL), priority 2017, dated 2022).
Where a name gives a salt, the structure may show the parent alone. Read-outs that look alike come from different tables or passages of the source. Non-standard residues stand in square brackets, D forms with d. Residues, ends and D or L forms follow the SMILES beside them. dHis(τ-Bn) = N[C@H](Cc1cn(Cc2ccccc2)cn1)C(=O)O; pGlu = O=C1CC[C@@H](C(=O)O)N1

Columns and labels:
[1] = biological target: T1, GnRHR (Homo sapiens, UniProt P30968); assay: Calcium assay in CHO-K1 cells (Genscript), FLIPR; type: cell-based; details: CHO-K1/GnRHR/Ga15 cells, relative to agonist control, read-out: GNRHR Stimulation at 1 μM
T1 construct: host or cells: CHO-K1 (CHO-K1/GnRHR/Ga15)
T1 sequence (P30968 1-328): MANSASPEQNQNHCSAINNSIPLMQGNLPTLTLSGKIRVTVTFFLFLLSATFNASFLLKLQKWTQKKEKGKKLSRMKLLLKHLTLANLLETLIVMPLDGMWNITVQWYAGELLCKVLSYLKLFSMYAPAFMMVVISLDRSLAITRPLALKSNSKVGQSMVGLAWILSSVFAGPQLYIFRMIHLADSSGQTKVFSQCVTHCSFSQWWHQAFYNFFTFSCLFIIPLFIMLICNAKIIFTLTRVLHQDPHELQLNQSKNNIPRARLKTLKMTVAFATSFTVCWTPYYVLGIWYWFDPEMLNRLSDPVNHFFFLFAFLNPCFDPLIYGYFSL
Procedure: Test article sample solutions were dissolved in HBSS buffer (with 20 mM HEPES buffer, pH 7.4) to form the 5× working solution. FLIPR® Calcium 4 assay kit from Molecular devices (R8141) was used as required. In brief, CHO-K1 cells expressing GnRHR (CHO-K1/GnRHR/Ga15, Genscript accession NM_000406) were respectively cultured in the 10-cm dishes and maintained at 37° C./5% CO2. CHO-K1 cells expressing GNRHR were respectively seeded in a 384-well black-wall, clear-bottom plate at a density of 15,000 cells per well in 20 μl of growth medium about 18 hours prior to the day of experiment and maintained at 37° C./5% CO2. Then, 20 μl of dye loading solution was added into the wells and the plates were subsequently placed into a 37° C. incubator for 60 minutes, followed by a 15 minutes' incubation at room temperature. At last, 10 μl of compounds or control agonist were added into respective wells of the assay plate during reading in FLIPR. The plate containing 5× compound and control agonist solution was placed in FLIPR. Solutions were added into the cell plate automatically at the 20 seconds and the fluorescence signal was monitored for an additional 100 seconds (21 sec to 120 sec.). Data were recorded by ScreenWorks (version 3.1) as FMD files with FLIPR and stored on the GenScript computer network for off-line analysis. Data acquisition and analyses was performed using ScreenWorks (version 3.1) program and exported to Excel. The average value of the first 20 seconds' reading was calculated as the baseline and the relative fluorescent units (ΔRFU) intensity values were calculated by subtracting the average value of baseline from the maximum fluorescent units (21 s to 120 s).
The % Stimulation was calculated with the following equation: % Stimulation=(ΔRFUCompound−ΔRFUBackground)/(ΔRFUAgonist control−ΔRFUBackground)×100
Dose response curves were fitted with four-parameter-logistic-equation by the software GraphPad Prism 6.
Equation: four parameter logistic equation. Y=Bottom+(Top-Bottom)/(1+10^((Log EC50−X)×Hillslope))
X is the logarithm of concentration. Y is the response.

[2] = Stability in aqueous media (PBS pH 7.4); type: physicochemical; set-up: unit not given here; details: phosphate buffer solution (PBS); PBS pH 7.4, 37° C., samples at T=0, 4, 24, 96 h; read-out: Stability grading (t1/2)
Source text: LC/MS data was collected for compound identity.

[3] = Solubility in PBS (LC/UV AUC trend); details: PBS pH 7.4, 0.2 mg/ml; rating 1 (good) to 5 (poor)
[4] = tested on: T cells; assay: Immune stimulation assay: MHC class I expression on T cells (PBMCs, flow cytometry); type: cell-based, human; details: PBMCs from a healthy donor, with IL-2, 72 hours
Procedure: FIG. 1: Expression of MHC class I after stimulation of T cells with increasing concentrations of GnRH II. PBMCs from a healthy donor was stimulated with GnRH II and IL-2 for 72 hours. Data points represent mean fluorescent intensity of MCH class I expression on CD4^+ T cells (blue triangles) or CD8^+ T cells (black squares) measured with flow cytometry.
(black). […] Data points represent mean fluorescent intensity of MCH class I expression on CD4^+ T cells (A) or CD8^+ T cells (B) measured with flow cytometry.
Human peripheral blood mononuclear cells (PBMCs) were purified from healthy donors with Ficoll-Hypaque density centrifugation. Cells were cultured in RPMI-1640 medium (Invitrogen) supplemented with 10% fetal bovine serum, 100 […], 100 μg/mL streptomycin and IL-2 (100 U/mL) for 72 hours in 37° C., 5% CO2.

[5] = pH 7.4

SMILES	activation at 1 µM [1] [%]	half-life at 0.2 mg/ml [2]	Solubility grading [3]	MHC class I expression on T cells [4]	Solubility grading [5]
CCNC(=O)[C@@H]1CCCN1C(=O)[C@H](CCCNC(=N)N)NC(=O)[C@H](Cc1c[nH]c2ccccc12)NC(=O)[C@@H](CC(C)C)NC(=O)[C@H](Cc1c[nH]cn1)NC(=O)[C@H](CO)NC(=O)[C@H](Cc1c[nH]c2ccccc12)NC(=O)[C@H](Cc1c[nH]cn1)NC(=O)[C@@H]1CCC(=O)N1 [Compound 47, pGlu-His-Trp-Ser-His-D-Leu-Trp-Arg-Pro-NHEt] ([pGlu]HWSH[dL]WRP-NHEt)	119	> 96	1	–	–
CCNC(=O)[C@@H]1CCCN1C(=O)[C@H](Cc1ccc(O)cc1)NC(=O)[C@H](Cc1c[nH]c2ccccc12)NC(=O)[C@@H](CC(C)C)NC(=O)[C@H](Cc1c[nH]cn1)NC(=O)[C@H](CO)NC(=O)[C@H](Cc1c[nH]c2ccccc12)NC(=O)[C@H](Cc1c[nH]cn1)NC(=O)[C@@H]1CCC(=O)N1 [Compound 50, pGlu-His-Trp-Ser-His-D-Leu-Trp-Tyr-Pro-NHEt] ([pGlu]HWSH[dL]WYP-NHEt)	105	> 96	1	–	–
CCNC(=O)[C@@H]1CCCN1C(=O)[C@H](CCCNC(=N)N)NC(=O)[C@H](CC(C)C)NC(=O)[C@@H](Cc1cn(Cc2ccccc2)cn1)NC(=O)[C@H](Cc1c[nH]cn1)NC(=O)[C@H](CO)NC(=O)[C@H](Cc1c[nH]c2ccccc12)NC(=O)[C@H](Cc1c[nH]cn1)NC(=O)[C@@H]1CCC(=O)N1 [Compound 56, pGlu-His-Trp-Ser-His-D-Bhi-Leu-Arg-Pro-NHEt] ([pGlu]HWSH[dHis(τ-Bn)]LRP-NHEt)	96	> 96	1	–	–
CCNC(=O)[C@@H]1CCCN1C(=O)[C@H](Cc1ccc(O)cc1)NC(=O)[C@H](Cc1c[nH]c2ccccc12)NC(=O)[C@@H](Cc1cn(Cc2ccccc2)cn1)NC(=O)[C@H](Cc1ccc(O)cc1)NC(=O)[C@H](CO)NC(=O)[C@H](Cc1c[nH]c2ccccc12)NC(=O)[C@H](Cc1c[nH]cn1)NC(=O)[C@@H]1CCC(=O)N1 [Compound 62, pGlu-His-Trp-Ser-Tyr-D-Bhi-Trp-Tyr-Pro-NHEt] ([pGlu]HWSY[dHis(τ-Bn)]WYP-NHEt)	77	< 96	5	–	–
CCNC(=O)[C@@H]1CCCN1C(=O)[C@H](Cc1ccc(O)cc1)NC(=O)[C@H](Cc1c[nH]c2ccccc12)NC(=O)[C@@H](Cc1cn(Cc2ccccc2)cn1)NC(=O)[C@H](Cc1c[nH]cn1)NC(=O)[C@H](CO)NC(=O)[C@H](Cc1c[nH]c2ccccc12)NC(=O)[C@H](Cc1c[nH]cn1)NC(=O)[C@@H]1CCC(=O)N1 [Compound 63, pGlu-His-Trp-Ser-His-D-Bhi-Trp-Tyr-Pro-NHEt] ([pGlu]HWSH[dHis(τ-Bn)]WYP-NHEt)	77	< 96	5	–	–
NC(=O)CNC(=O)[C@@H]1CCCN1C(=O)[C@H](Cc1ccc(O)cc1)NC(=O)[C@H](Cc1c[nH]c2ccccc12)NC(=O)[C@@H](Cc1c[nH]c2ccccc12)NC(=O)[C@H](Cc1ccc(O)cc1)NC(=O)[C@H](CO)NC(=O)[C@H](Cc1c[nH]c2ccccc12)NC(=O)[C@H](Cc1c[nH]cn1)NC(=O)[C@@H]1CCC(=O)N1 [Compound 64, pGlu-His-Trp-Ser-Tyr-D-Trp-Trp-Tyr-Pro-Gly-amide] ([pGlu]HWSY[dW]WYPG-NH2)	50	< 96	5	–	–
N=C(N)NCCC[C@H](NC(=O)[C@H](Cc1c[nH]c2ccccc12)NC(=O)[C@@H](Cc1c[nH]c2ccccc12)NC(=O)[C@H](Cc1ccc(O)cc1)NC(=O)[C@H](CO)NC(=O)[C@H](Cc1c[nH]c2ccccc12)NC(=O)[C@H](Cc1c[nH]cn1)NC(=O)[C@@H]1CCC(=O)N1)C(=O)N1CCC[C@H]1C(=O)NCC(N)=O [Compound 66, pGlu-His-Trp-Ser-Tyr-D-Trp-Trp-Arg-Pro-Gly-amide] ([pGlu]HWSY[dW]WRPG-NH2)	83	> 96	5	–	–
CCNC(=O)[C@@H]1CCCN1C(=O)[C@H](CCCNC(=N)N)NC(=O)[C@H](Cc1c[nH]c2ccccc12)NC(=O)[C@@H](Cc1cn(Cc2ccccc2)cn1)NC(=O)[C@H](Cc1ccc(O)cc1)NC(=O)[C@H](CO)NC(=O)[C@H](Cc1c[nH]c2ccccc12)NC(=O)[C@H](Cc1c[nH]cn1)NC(=O)[C@@H]1CCC(=O)N1 [Compound 67, pGlu-His-Trp-Ser-Tyr-D-Bhi-Trp-Arg-Pro-NHEt] ([pGlu]HWSY[dHis(τ-Bn)]WRP-NHEt)	117	< 96	1	–	–
CC(C)C[C@H](NC(=O)[C@@H](Cc1c[nH]c2ccccc12)NC(=O)[C@H](Cc1c[nH]cn1)NC(=O)[C@H](CO)NC(=O)[C@H](Cc1c[nH]c2ccccc12)NC(=O)[C@H](Cc1c[nH]cn1)NC(=O)[C@@H]1CCC(=O)N1)C(=O)N[C@@H](CCCNC(=N)N)C(=O)N1CCC[C@H]1C(=O)NCC(N)=O [Compound 68, pGlu-His-Trp-Ser-His-D-Trp-Leu-Arg-Pro-Gly-amide] ([pGlu]HWSH[dW]LRPG-NH2)	86	> 96	1	–	–
NC(=O)CNC(=O)[C@@H]1CCCN1C(=O)[C@H](Cc1ccc(O)cc1)NC(=O)[C@H](Cc1c[nH]c2ccccc12)NC(=O)CNC(=O)[C@H](Cc1c[nH]cn1)NC(=O)[C@H](CO)NC(=O)[C@H](Cc1c[nH]c2ccccc12)NC(=O)[C@H](Cc1c[nH]cn1)NC(=O)[C@@H]1CCC(=O)N1 [GnRH II] ([pGlu]HWSHGWYPG-NH2)	–	–	–	directly activates these cells	–
CCNC(=O)[C@@H]1CCCN1C(=O)[C@H](CCCNC(=N)N)NC(=O)[C@H](CC(C)C)NC(=O)[C@@H](Cc1cn(Cc2ccccc2)cn1)NC(=O)[C@H](Cc1ccc(O)cc1)NC(=O)[C@H](CO)NC(=O)[C@H](Cc1c[nH]c2ccccc12)NC(=O)[C@H](Cc1cnc[nH]1)NC(=O)[C@@H]1CCC(=O)N1 [Histrelin TFA]	–	–	–	–	2
CCNC(=O)[C@@H]1CCCN1C(=O)[C@H](CCCNC(=N)N)NC(=O)[C@H](CC(C)C)NC(=O)[C@@H](Cc1cn(Cc2ccccc2)cn1)NC(=O)[C@H](Cc1ccc(O)cc1)NC(=O)[C@H](CO)NC(=O)[C@H](Cc1c[nH]c2ccccc12)NC(=O)[C@H](Cc1cnc[nH]1)NC(=O)[C@@H]1CCC(=O)N1 [Histrelin acetate]	–	–	–	–	4
CCNC(=O)[C@@H]1CCCN1C(=O)[C@H](CCCNC(=N)N)NC(=O)[C@H](CC(C)C)NC(=O)[C@@H](CC(C)C)NC(=O)[C@H](Cc1ccc(O)cc1)NC(=O)[C@H](CO)NC(=O)[C@H](Cc1c[nH]c2ccccc12)NC(=O)[C@H](Cc1c[nH]cn1)NC(=O)[C@@H]1CCC(=O)N1 [Leuprorelin TFA]	–	–	–	–	1
CCNC(=O)[C@@H]1CCCN1C(=O)[C@H](CCCNC(=N)N)NC(=O)[C@H](CC(C)C)NC(=O)[C@@H](CC(C)C)NC(=O)[C@H](Cc1ccc(O)cc1)NC(=O)[C@H](CO)NC(=O)[C@H](Cc1c[nH]c2ccccc12)NC(=O)[C@H](Cc1c[nH]cn1)NC(=O)[C@@H]1CCC(=O)N1 [Leuprorelin acetate]	–	–	–	–	2
